Converted amounts (≈) assume the structure as drawn. “And” between values parts separate entries of the source, which are not always exact repeats. Equal entries are not always repeated.
Tests used:
S. aureus = assay: Anti-bacterial efficacy (MIC), S. aureus; format: cell-based; settings: for MIC Sa: Table 2; for MIC: Staphylococcus aureus, Table 3
E. coli = assay: Anti-bacterial efficacy (MIC), E. coli; format: cell-based; settings: for MIC Ec: Table 2; for MIC: Escherichia coli, Table 3
K. pneumoniae = assay: Anti-bacterial efficacy (MIC), K. pneumoniae; format: cell-based; settings: for MIC Kpn: Table 2; for MIC: Klebsiella pneumoniae, Table 3
A. baumannii = assay: Anti-bacterial efficacy (MIC), A. baumannii; format: cell-based; settings: for MIC Ab: Table 2; for MIC: Acinetobacter baumannii, Table 3
P. aeruginosa = assay: Anti-bacterial efficacy (MIC), P. aeruginosa; format: cell-based; settings: for MIC Pa: Table 2; for MIC: Pseudomonas aeruginosa, Table 3
hERG = molecular target: T1, hERG (Homo sapiens, UniProt Q12809); assay: hERG inhibition, Cerep automated patch-clamp assay in Chinese Hamster Ovary K1 cells; format: cell-based; settings: CHO K1 cells, tail current, read-out: hREG IC50
T1 construct: host or cells: Chinese Hamster Ovary K1 cells
Protocol: A Cerep automated patch-clamp assay using Chinese Hamster Ovary K1 cells was used to measure hERG IC50 values. The degree of inhibition (%) was obtained by measuring the tail current amplitude, which is induced by a one second test pulse to −40 mV after a two second pulse to +20 mV, before and after drug incubation (the difference in current was normalized to control and multiplied by 100 to obtain the percent inhibition).
Concentration (log) response curves were fitted to a logistic equation (three parameters assuming complete block of the current at very high test compound concentrations) to generate estimates of the 50% inhibitory convcentration (IC50). The concentration-response relationship of each compound was constructed from the percentage reductions of current amplitude by sequential concentrations. The MIC and hERG IC50 values are provided in Table 2 below for the compounds tested.

Caco-2 cell monolayer = Caco-2 cell monolayer permeability; format: in vitro ADME, human; settings: Caco-2 monolayer permeability
Text: Oral bioavailability can be assessed by various methods such as measuring the Caco-2 cell monolayer permeability, and measuring pharmacokinetic properties by calculating the ratio of the AUC from oral administration to the AUC from intravenous administration. Both methods are used to assess compounds here as illustrated in Examples 8-9. In some aspects, compounds herein show the highest membrane (Caco-2 cell monolayer) permeability among all the compounds tested. The Caco-2 cell line is a continuous cell of heterogeneous human epithelial colorectal adenocarcinoma cells that when cultured under specific conditions the cells become differentiated and polarized such that their phenotype, morphologically and functionally, resembles the enterocytes lining the small intestine. Thus, the Caco-2 monolayer is widely used across the pharmaceutical industry as an in vitro model of the human small intestinal mucosa to predict the absorption of orally-administered drugs.
Caco-2 human colon carcinoma cell line (Caco-2) was used as a model system for intestinal epithelial permeability. There is similarity in uptake and barrier properties between this cell system and the small intestinal epithelial layer. See., Hidalgo I J, et al., Gastroenterology. 1989 March; 96(3):736-49. Characterization of the human colon carcinoma cell line (Caco-2) as a model system for intestinal epithelial permeability.

[1] = In vivo mouse PK, oral bioavailability; settings: plasma, AUC oral / AUC intravenous, read-out: Mouse % F
Protocol: Typical protocol is a single dose intravenous and oral (gavage) administration with blood collection from each animal by cardiac puncture at selected (6 to 8) time points (n=3 mice per time point) into a tube containing an appropriate anticoagulant. The blood is centrifuged and the resulting plasma removed for subsequent analysis. After proper sample preparation, the plasma concentrations of a test compound are determined by LC-MS/MS and the pharmacokinctics (namely, area-under-curve or AUC) of the concentration-time profile from oral administration is compared with the corresponding pharmacokinetics from intravenous administration. […] In addition, Caco values are shown.

Dog oral bioavailability = settings: in vivo, read-out: Dog % F

T1 sequence (Q12809 whole entry): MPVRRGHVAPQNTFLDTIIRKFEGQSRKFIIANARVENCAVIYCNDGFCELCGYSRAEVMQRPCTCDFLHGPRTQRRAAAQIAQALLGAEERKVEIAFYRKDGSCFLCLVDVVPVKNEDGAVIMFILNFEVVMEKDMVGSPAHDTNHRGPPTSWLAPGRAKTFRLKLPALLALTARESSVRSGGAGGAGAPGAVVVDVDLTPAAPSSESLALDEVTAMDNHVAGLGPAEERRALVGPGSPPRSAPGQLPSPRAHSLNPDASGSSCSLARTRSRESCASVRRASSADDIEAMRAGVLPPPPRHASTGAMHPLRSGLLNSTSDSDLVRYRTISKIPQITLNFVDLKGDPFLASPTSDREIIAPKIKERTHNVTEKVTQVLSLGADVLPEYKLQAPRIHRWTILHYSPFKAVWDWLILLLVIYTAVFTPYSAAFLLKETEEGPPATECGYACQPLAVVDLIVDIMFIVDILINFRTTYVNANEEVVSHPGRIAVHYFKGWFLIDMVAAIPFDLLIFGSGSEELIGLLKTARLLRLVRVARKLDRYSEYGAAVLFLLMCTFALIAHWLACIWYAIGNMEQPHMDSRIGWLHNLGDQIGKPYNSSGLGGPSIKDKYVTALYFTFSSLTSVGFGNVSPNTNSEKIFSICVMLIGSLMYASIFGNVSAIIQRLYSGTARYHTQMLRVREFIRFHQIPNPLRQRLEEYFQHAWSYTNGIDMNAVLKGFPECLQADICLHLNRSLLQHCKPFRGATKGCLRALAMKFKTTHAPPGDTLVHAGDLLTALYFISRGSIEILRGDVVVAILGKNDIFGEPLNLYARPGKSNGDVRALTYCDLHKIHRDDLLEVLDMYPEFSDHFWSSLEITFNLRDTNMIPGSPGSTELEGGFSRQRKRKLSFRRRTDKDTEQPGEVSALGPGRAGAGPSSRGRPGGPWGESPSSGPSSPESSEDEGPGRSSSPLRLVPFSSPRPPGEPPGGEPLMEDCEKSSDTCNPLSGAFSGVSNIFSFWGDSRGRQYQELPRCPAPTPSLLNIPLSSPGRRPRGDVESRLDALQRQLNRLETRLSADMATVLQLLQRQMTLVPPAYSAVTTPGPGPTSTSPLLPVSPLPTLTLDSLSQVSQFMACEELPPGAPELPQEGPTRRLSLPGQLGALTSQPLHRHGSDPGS

Row | SMILES | MIC Sa (S. aureus) [µg/mL] | MIC Ec (E. coli) [µg/mL] | MIC Kpn (K. pneumoniae) [µg/mL] | MIC Ab (A. baumannii) [µg/mL] | MIC Pa (P. aeruginosa) [µg/mL] | IC50 (hERG) [µM] | MIC (S. aureus) [µg/mL] | MIC (E. coli) [µg/mL] | MIC (K. pneumoniae) [µg/mL] | MIC (A. baumannii) [µg/mL] | MIC (P. aeruginosa) [µg/mL] | Caco (Caco-2 cell monolayer) | bioavailability [1] [%] | bioavailability (Dog oral bioavailability) [%]
1 | CNc1cc(F)cc2c1[nH]c1nc(Oc3cnc(C)nc3)nc(N3CC4(CCC4N)C3)c12 (stereo not shown) | ≤0.016 | 0.25 (≈ 0.575 µM) | 2 (≈ 4.6 µM) | 0.5 (≈ 1.15 µM) | 1 (≈ 2.3 µM) | 16 |  |  |  |  |  |  |  | 
2 | CNc1cc(F)cc2c1[nH]c1nc(Oc3cnc(C)nc3)nc(N3CC4CC(N)C4C3)c12 (stereo not shown) | ≤0.016 | 0.25 (≈ 0.575 µM) | 2 (≈ 4.6 µM) | 0.25 (≈ 0.575 µM) | 1 (≈ 2.3 µM) | 1 |  |  |  |  |  |  |  | 
3 | CNc1cc(F)cc2c1[nH]c1nc(Oc3cnc(C)nc3)nc(N3CC4C(N)C4C3)c12 (stereo not shown) | ≤0.016 | 0.13 (≈ 0.309 µM) | 2 (≈ 4.76 µM) | 0.25 (≈ 0.595 µM) | 4 (≈ 9.51 µM) | 9.5 |  |  |  |  |  |  |  | 
4 | CNc1cc(F)cc2c1[nH]c1nc(Oc3cnc(C)nc3)nc(N3CC4C(O)C4C3)c12 (stereo not shown) | ≤0.016 | 0.25 (≈ 0.593 µM) | 1 (≈ 2.37 µM) | 0.5 (≈ 1.19 µM) | >16 | 41 |  |  |  |  |  |  |  | 
5 | CNc1cc(F)cc2c1[nH]c1nc(Oc3cnc(C)nc3)nc(N3C[C@@H]4[C@@H](O)[C@@H]4C3)c12 [1.4] |  |  |  |  |  |  | ≤ 0.016 | 0.5 (≈ 1.19 µM) | 1 (≈ 2.37 µM) | 2 (≈ 4.75 µM) | > 16 | 7.5 10^−8 cm/s | 15 | 
6 | CNc1cc(F)cc2c1[nH]c1nc(Oc3cnc(C)nc3)nc(N3CC4CC3CC4N)c12 (stereo not shown) | ≤0.016 | 0.13 (≈ 0.299 µM) | 2 (≈ 4.6 µM) | 0.5 (≈ 1.15 µM) | 1 (≈ 2.3 µM) | 4 |  |  |  |  |  |  |  | 
7 | CNc1cc(F)c(F)c2c1[nH]c1nc(Oc3cnc([C@H](C)O)nc3)nc(N3CC4(CCC4N)C3)c12 (stereo partly shown) [1.2] |  |  |  |  |  |  | ≤ 0.016 | 0.13 (≈ 0.269 µM) | 1 (≈ 2.07 µM) | 2 (≈ 4.15 µM) | 1 (≈ 2.07 µM) |  | < 2 | 
8 | CNc1cc(F)c(F)c2c1[nH]c1nc(Oc3cnc([C@H](C)O)nc3)nc(N3C[C@H]4CC3C[C@H]4N)c12 [1.1] |  |  |  |  |  |  | ≤ 0.016 | 0.25 (≈ 0.518 µM) | 1 (≈ 2.07 µM) | 4 (≈ 8.29 µM) | 2 (≈ 4.15 µM) | <0.1 10^−8 cm/s | < 2 | 
9 | CNc1cc(F)cc2c1[nH]c1nc(Oc3cnc(C)nc3)nc(N3CC4CC(O)C4C3)c12 (stereo not shown) | ≤0.016 | 0.13 (≈ 0.299 µM) | 1 (≈ 2.3 µM) | 0.5 (≈ 1.15 µM) | 16 (≈ 36.7 µM) | 20 |  |  |  |  |  |  |  | 
10 | CNc1cc(F)cc2c1[nH]c1nc(Oc3cnc(C)nc3)nc(N3CC4(CCC4O)C3)c12 (stereo not shown) | ≤0.016 | 1 (≈ 2.3 µM) | 4 (≈ 9.19 µM) | 4 (≈ 9.19 µM) | >16 | 100 |  |  |  |  |  |  |  | 
11 | CNc1cc(F)cc2c1[nH]c1nc(Oc3cnc(C)nc3)nc(N3C[C@H]4C[C@@H](O)[C@H]4C3)c12 [1.3] |  |  |  |  |  |  | ≤ 0.016 | 0.13 (≈ 0.299 µM) | 0.5 (≈ 1.15 µM) | 1 (≈ 2.3 µM) | 16 (≈ 36.7 µM) | 5.5 10^−8 cm/s and 6.3 10^−8 cm/s | 25 | 50
12 | CNc1cc(F)cc2c1[nH]c1nc(Oc3cnc(C)nc3)nc(N3CC4CC3CC4O)c12 (stereo not shown) | ≤0.016 | 1 (≈ 2.3 µM) | 8 (≈ 18.4 µM) | 4 (≈ 9.19 µM) | >16 | 71 |  |  |  |  |  |  |  | 

Reference: patent US10385055B2, “Tricyclic gyrase inhibitors” (Merck Sharp & Dohme Corp., priority 2013, dated 2019)
